In patent US8309552B2, “Immunomodulating heterocyclic compounds” (Medigene AG, priority 2003, dated 2012):

biological target: T1, CD80-CD28 interaction (Homo sapiens, UniProt P33681); assay: Homogenous Time Resolved Fluorescence (HTRF) assay, cell free; type: binding; conditions: cell-free HTRF, compound concentration series 100 μM-1.7 nM, 4 hours at room temperature; read-out: Activity (EC50 in the HTRF assay)
T1 sequence (P33681 35-242 limits assumed): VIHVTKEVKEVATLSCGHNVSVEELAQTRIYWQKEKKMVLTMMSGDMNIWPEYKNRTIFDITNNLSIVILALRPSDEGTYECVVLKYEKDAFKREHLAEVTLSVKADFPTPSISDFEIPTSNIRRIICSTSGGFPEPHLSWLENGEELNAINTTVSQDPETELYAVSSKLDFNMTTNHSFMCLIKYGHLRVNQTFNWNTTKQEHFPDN
Experimental: Homogenous Time Resolved Fluorescence Assay
The examples described above were tested in a cell free Homogenous Time Resolved Fluorescence (HTRF) assay to determine their activity as inhibitors of the CD80-CD28 interaction.
In the assay, europium and allophycocyanin (APC) are associated with CD28 and CD80 indirectly (through antibody linkers) to form a complex, which brings the europium and APC into close proximity to generate a signal. The complex comprises the following six proteins: fluorescent label 1, linker antibody 1, CD28 fusion protein, CD80 fusion protein, linker antibody 2, and fluorescent label 2. The table below describes these reagents in greater detail.
On formation of the complex, europium and APC are brought into proximity and a signal is generated.
Non-specific interaction was measured by substituting a mouse Fab fragment (C215) for the CD80 mouse Fab fragment fusion protein (1.9 μg/ml). The assay was carried out in black 384 well plates in a final volume of 30 μl. Assay buffer: 50 mM Tris-HCl, 150 mM NaCl pH7.8, containing 0.1% BSA (w/v) added just prior to use.
Compounds were added to the above reagents in a concentration series ranging between 100 μM-1.7 nM. The reaction was incubated for 4 hours at room temperature. Dual measurements were made using a Wallac Victor 1420 Multilabel Counter. First measurement: excitation 340 nm, emission 665 nm, delay 50 μs, window time 200 μs. second measurement: excitation 340 nm, emission 615 nm, delay 50 μs, window time 200 μs. Counts were automatically corrected for fluorescence crossover, quenching and background. The EC50 activities of compounds tested are recorded as: EC50:*=>10 μM,**=1-10 μM,***=<1 μM.

Row | SMILES | EC50
1 | COCCNC(=O)c1ccc(-n2[nH]c3c(nnc4ccccc43)c2=O)cc1 [Example 9a] | 1000 to 10000 nM
2 | CN1CCN(CCCNC(=O)c2ccc(-n3[nH]c4c(nnc5ccccc54)c3=O)cc2)CC1 [Example 10] | < 1000 nM
3 | CN(C)CCNC(=O)c1ccc(-n2[nH]c3c(nnc4ccccc43)c2=O)cc1 [Example 11] | < 1000 nM
4 | O=C(NCCN1CCOCC1)c1ccc(-n2[nH]c3c(nnc4ccccc43)c2=O)cc1 [Example 12] | < 1000 nM
5 | O=C(NCCCN1CCOCC1)c1ccc(-n2[nH]c3c(nnc4ccccc43)c2=O)cc1 [Example 13] | < 1000 nM
6 | CC(C)=CCC/C(C)=C/CNC(=O)c1ccc(-n2[nH]c3c(nnc4ccccc43)c2=O)cc1 [Example 14] | > 10000 nM
7 | O=C(Nc1ccccc1)c1ccc(-n2[nH]c3c(nnc4ccccc43)c2=O)cc1 [Example 15] | 1000 to 10000 nM
8 | Cc1ccc2[nH]cc(CCNC(=O)c3ccc(-n4[nH]c5c(nnc6ccccc65)c4=O)cc3)c2c1 [Example 16] | > 10000 nM
9 | CC(C)(C)OC(=O)NCCNC(=O)c1ccc(-n2[nH]c3c(nnc4ccccc43)c2=O)cc1 [Example 17] | 1000 to 10000 nM
10 | CN1CCC(NC(=O)c2ccc(-n3[nH]c4c(nnc5ccccc54)c3=O)cc2)CC1 [Example 18] | < 1000 nM
11 | CC(NC(=O)c1ccc(-n2[nH]c3c(nnc4ccccc43)c2=O)cc1)c1ccccc1 (stereo not shown) [Example 19] | > 10000 nM
12 | O=C(NCCc1ccncc1)c1ccc(-n2[nH]c3c(nnc4ccccc43)c2=O)cc1 [Example 20] | < 1000 nM
13 | O=C(NCc1ccc([N+](=O)[O-])cc1)c1ccc(-n2[nH]c3c(nnc4ccccc43)c2=O)cc1 [Example 21] | 1000 to 10000 nM
14 | O=C(NCCCn1ccnc1)c1ccc(-n2[nH]c3c(nnc4ccccc43)c2=O)cc1 [Example 23] | < 1000 nM
15 | O=C(NC1CCCCCC1)c1ccc(-n2[nH]c3c(nnc4ccccc43)c2=O)cc1 [Example 24] | 1000 to 10000 nM
16 | CCCCC(CC)CNC(=O)c1ccc(-n2[nH]c3c(nnc4ccccc43)c2=O)cc1 (stereo not shown) [Example 25] | > 10000 nM
17 | CC(C)CCCC(C)NC(=O)c1ccc(-n2[nH]c3c(nnc4ccccc43)c2=O)cc1 (stereo not shown) [Example 26] | < 1000 nM
18 | CCCCCCC(C)NC(=O)c1ccc(-n2[nH]c3c(nnc4ccccc43)c2=O)cc1 (stereo not shown) [Example 27] | > 10000 nM
19 | C=C(C)C(=O)OCCNC(=O)c1ccc(-n2[nH]c3c(nnc4ccccc43)c2=O)cc1 [Example 28] | 1000 to 10000 nM
20 | CC(O)CCNC(=O)c1ccc(-n2[nH]c3c(nnc4ccccc43)c2=O)cc1 (stereo not shown) [Example 29] | < 1000 nM
21 | COc1ccc2[nH]cc(CCNC(=O)c3ccc(-n4[nH]c5c(nnc6ccccc65)c4=O)cc3)c2c1 [Example 31] | 1000 to 10000 nM
22 | CC1CCCCN1CCCNC(=O)c1ccc(-n2[nH]c3c(nnc4ccccc43)c2=O)cc1 (stereo not shown) [Example 32] | < 1000 nM
23 | CC(C)C(C)NC(=O)c1ccc(-n2[nH]c3c(nnc4ccccc43)c2=O)cc1 (stereo not shown) [Example 33] | 1000 to 10000 nM
24 | CCOC(=O)CC(C)NC(=O)c1ccc(-n2[nH]c3c(nnc4ccccc43)c2=O)cc1 (stereo not shown) [Example 34] | 1000 to 10000 nM
25 | O=C(NCCc1cnc[nH]1)c1ccc(-n2[nH]c3c(nnc4ccccc43)c2=O)cc1 [Example 35] | 1000 to 10000 nM
26 | O=C(NCCN1CCNC1=O)c1ccc(-n2[nH]c3c(nnc4ccccc43)c2=O)cc1 [Example 36] | > 10000 nM

Row | SMILES | EC50
27 | O=C(NCCN1CCN(Cc2ccccc2)CC1)c1ccc(-n2[nH]c3c(nnc4ccccc43)c2=O)cc1 [Example 37] | < 1000 nM
28 | CC(C)(C)C1CCC(NC(=O)c2ccc(-n3[nH]c4c(nnc5ccccc54)c3=O)cc2)CC1 (stereo not shown) [Example 38] | > 10000 nM
29 | O=C(NCc1cccc([N+](=O)[O-])c1)c1ccc(-n2[nH]c3c(nnc4ccccc43)c2=O)cc1 [Example 39] | 1000 to 10000 nM
30 | O=C(Nc1ccc(N2CCOCC2)cc1)c1ccc(-n2[nH]c3c(nnc4ccccc43)c2=O)cc1 [Example 40] | 1000 to 10000 nM
31 | O=C(NCCCc1ccccc1)c1ccc(-n2[nH]c3c(nnc4ccccc43)c2=O)cc1 [Example 41] | 1000 to 10000 nM
32 | O=C(NCCCNC(=O)c1ccc(-n2[nH]c3c(nnc4ccccc43)c2=O)cc1)OCc1ccccc1 [Example 42] | 1000 to 10000 nM
33 | CCCCCC(C)NC(=O)c1ccc(-n2[nH]c3c(nnc4ccccc43)c2=O)cc1 (stereo not shown) [Example 43] | 1000 to 10000 nM
34 | O=C(NC1CCCC1OCc1ccccc1)c1ccc(-n2[nH]c3c(nnc4ccccc43)c2=O)cc1 (stereo not shown) [Example 44] | > 10000 nM
35 | CCOC(CNC(=O)c1ccc(-n2[nH]c3c(nnc4ccccc43)c2=O)cc1)OCC [Example 45] | 1000 to 10000 nM
36 | CCNC(=O)c1ccc(-n2[nH]c3c(nnc4ccccc43)c2=O)cc1 [Example 46] | < 1000 nM
37 | O=C(NCCNc1ccccc1)c1ccc(-n2[nH]c3c(nnc4ccccc43)c2=O)cc1 [Example 47] | < 1000 nM
38 | CNCCNC(=O)c1ccc(-n2[nH]c3c(nnc4ccccc43)c2=O)cc1 [Example 48] | < 1000 nM
39 | CCNCCNC(=O)c1ccc(-n2[nH]c3c(nnc4ccccc43)c2=O)cc1 [Example 49] | < 1000 nM
40 | O=C(NCCOCCO)c1ccc(-n2[nH]c3c(nnc4ccccc43)c2=O)cc1 [Example 50] | 1000 to 10000 nM
41 | O=C(NCCO)c1ccc(-n2[nH]c3c(nnc4ccccc43)c2=O)cc1 [Example 51] | < 1000 nM
42 | CNCCCNC(=O)c1ccc(-n2[nH]c3c(nnc4ccccc43)c2=O)cc1 [Example 52] | < 1000 nM
43 | NCCCCNC(=O)c1ccc(-n2[nH]c3c(nnc4ccccc43)c2=O)cc1 [Example 54] | < 1000 nM
44 | CC(C)CC(C)NC(=O)c1ccc(-n2[nH]c3c(nnc4ccccc43)c2=O)cc1 (stereo not shown) [Example 55] | < 1000 nM
45 | O=C(NCc1ccc(F)cc1)c1ccc(-n2[nH]c3c(nnc4ccccc43)c2=O)cc1 [Example 56] | 1000 to 10000 nM
46 | O=C(NC1CCCCC1)c1ccc(-n2[nH]c3c(nnc4ccccc43)c2=O)cc1 [Example 57] | 1000 to 10000 nM
47 | CCCCN(CCCC)CCCNC(=O)c1ccc(-n2[nH]c3c(nnc4ccccc43)c2=O)cc1 [Example 58] | < 1000 nM
48 | O=C(NC1CCCCCCCCCCC1)c1ccc(-n2[nH]c3c(nnc4ccccc43)c2=O)cc1 [Example 59] | > 10000 nM
49 | CCN(CC)CCNC(=O)c1ccc(-n2[nH]c3c(nnc4ccccc43)c2=O)cc1 [Example 60] | < 1000 nM
50 | CN1CCCC1CCNC(=O)c1ccc(-n2[nH]c3c(nnc4ccccc43)c2=O)cc1 (stereo not shown) [Example 61] | < 1000 nM
51 | CC1CCC(NC(=O)c2ccc(-n3[nH]c4c(nnc5ccccc54)c3=O)cc2)CC1 (stereo not shown) [Example 62] | 1000 to 10000 nM

same assay, conditions: inhibition of the CD80-CD28 interaction, 4 hours at room temperature; read-out: EC50 activity in the HTRF assay

Row | SMILES | EC50
52 | O=C(O)c1ccc(-n2[nH]c3c(nnc4ccccc43)c2=O)cc1 [Example 1, 4-(3-oxo-1,3-dihydro-2H-pyrazolo[4,3-c]cinnolin-2-yl)benzoic acid] | > 10000 nM
53 | O=C(O)c1ccc(-n2[nH]c3c(nnc4c(F)cccc43)c2=O)cc1 [Example 5, 4-(6-fluoro-3-oxo-1,3-dihydro-2H-pyrazolo[4,3-c]cinnolin-2-yl)benzoic acid] | > 10000 nM
54 | CN(C)CCCNC(=O)Nc1ccc(-n2[nH]c3c(nnc4ccccc43)c2=O)cc1 [Example 8, N-[3-(dimethylamino)propyl]-N′-[4-(3-oxo-1,3-dihydro-2H-pyrazolo[4,3-c]cinnolin-2-yl)phenyl]urea] | < 1000 nM
55 | CCOC(=O)c1ccc(-n2[nH]c3c(nnc4ccccc43)c2=O)cc1 [Example 9, 4-(3-oxo-1,3-dihydro-2H-pyrazolo[4,3-c]cinnolin-2-yl)benzoic acid ethyl ester] | 1000 to 10000 nM
